pIC50: −log10 of the molar value. ≈ marks a conversion by molar mass, not a printed value.
What was measured:
[1] = target: T1, acid ceramidase (Homo sapiens, UniProt Q13510); assay: Acid ceramidase inhibition, biochemical fluorescent assay with cell lysates overexpressing acid ceramidase, substrate Rbm14-12; details: substrate Rbm14-12 6.3 μM
T1 construct: Cell lysates overexpressing acid ceramidase were used as the enzyme source; expressed in transfected cells
T1 sequence (Q13510 22-395): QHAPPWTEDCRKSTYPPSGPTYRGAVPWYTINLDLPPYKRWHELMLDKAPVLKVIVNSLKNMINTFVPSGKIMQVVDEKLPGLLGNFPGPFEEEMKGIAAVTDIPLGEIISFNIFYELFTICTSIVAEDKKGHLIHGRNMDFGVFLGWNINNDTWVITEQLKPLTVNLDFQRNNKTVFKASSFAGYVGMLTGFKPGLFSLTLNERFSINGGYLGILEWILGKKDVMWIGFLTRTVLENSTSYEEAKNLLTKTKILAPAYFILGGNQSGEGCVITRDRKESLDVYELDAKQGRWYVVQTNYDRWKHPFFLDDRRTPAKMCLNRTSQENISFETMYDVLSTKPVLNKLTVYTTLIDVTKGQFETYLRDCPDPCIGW
Outline: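 Lysate of cells overexpressing acid ceramidase (10 μg protein) preincubated with compound dose series 1 hr at RT in 25 mM NaAC, 100 mM NaCl, pH 4.5, then reacted 1 hr with 6.3 μM Rbm14-12. Stopped with NaIO4/glycine buffer pH 10.6, fluorescence ex360/em446; IC50 by four-parameter fit.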

[2] = Compound solubility in water
[3] = pH 4.5, 1 hr preincubation at RT

| SMILES | pIC50 ([1]; pH 4.5) | solubility [2] [µg/mL] | pIC50 [1, 3] |
| --- | --- | --- | --- |
| O=C(NCCCc1ccccc1)n1cnc2ncccc21 [Example 59, N-(3-Phenylpropyl)-1H-imidazo[4,5-b]pyridine-1-carboxamide] | – | 24.6 (≈ 87.8 µM) | > 6.70 |
| CCCCNC(=O)n1cnc2c(OC)cccc21 [Example 52, N-Butyl-4-methoxy-1H-benzo[d]imidazole-1-carboxamide] | – | 23.2 (≈ 93.8 µM) | > 6.70 |
| CC(C)CCNC(=O)n1cnc2c(N3CCN4CCOC[C@H]4C3)cccc21 [Example 199, (R)-4-(Hexahydropyrazino[2,1-c][1,4]oxazin-8(1H)-yl)-N-isopentyl-1H-benzo[d]imidazole-1-carboxamide] | < 6.00 | 31 (≈ 83.4 µM) | – |
| CC(C)CCNC(=O)n1cnc2c(N3CC4CC3CN4C)cccc21 (stereo not shown) [Example 159, N-iso-Pentyl-4-(5-methyl-2,5-diazabicyclo[2.2.1]heptan-2-yl)-1H-benzo[d]imidazole-1-carboxamide] | – | 33 (≈ 96.6 µM) | 6.00 to 6.70 |
| CCCCNC(=O)n1cnc2c(C3CCN(C)CC3)c(C(F)(F)F)ccc21 [Example 56, N-Butyl-4-(1-methylpiperidin-4-yl)-5-(trifluoromethyl)-1H-benzo[d]imidazole-1-carboxamide] | – | 28.1 (≈ 73.5 µM) | < 6.00 |
| Cc1ccc(CCNC(=O)n2cnc3ccccc32)cc1 [Example 108, N-(4-Methylphenethyl)-1H-benzo[d]imidazole-1-carboxamide] | – | 6.8 (≈ 24.3 µM) | > 6.70 |
| COc1nc2c(N3CCN(C)CC3)cccc2n1C(=O)NCCC(C)C [Example 145, N-iso-Pentyl-2-methoxy-4-(4-methylpiperazin-1-yl)-1H-benzo[d]imidazole-1-carboxamide] | – | 46 (≈ 128 µM) | < 6.00 |
| O=C(NCCc1ccccc1)n1cnc2ccc(C(F)(F)F)cc21 [Example 26b, N-phenethyl-6-(trifluoromethyl)-1H-benzo[d]imidazole-1-carboxamide] | – | 2.6 (≈ 7.8 µM) | > 6.70 |
| CC(C)CCNC(=O)n1cnc2c(N3CCOC[C@@H]3C)cccc21 [Example 169, (S)—N-iso-Pentyl-4-(3-methylmorpholino)-1H-benzo[d]imidazole-1-carboxamide] | 6.00 to 6.70 | 23 (≈ 69.6 µM) | – |
| CC(C)CCNC(=O)n1cnc2c(N3CCN(C)C(=O)C3)cccc21 [Example 163, N-iso-Pentyl-4-(4-methyl-3-oxopiperazin-1-yl)-1H-benzo[d]imidazole-1-carboxamide] | 6.00 to 6.70 | 14 (≈ 40.8 µM) | – |
| CCCCNC(=O)n1cnc2cc(OC(F)(F)F)ccc21 [Example 70b, N-butyl-5-(trifluoromethoxy)-1H-benzo[d]imidazole-1-carboxamide] | – | 9.6 (≈ 31.9 µM) | > 6.70 |
| O=C(NCCOc1ccccc1)n1cnc2ncccc21 [Example 62, N-(2-Phenoxyethyl)-1H-imidazo[4,5-b]pyridine-1-carboxamide] | – | 26.6 (≈ 94.2 µM) | > 6.70 |
| COc1nc2cc(-c3cccnc3)cnc2n1C(=O)NCCCCc1ccccc1 [Example 122, 2-Methoxy-N-(4-phenylbutyl)-6-(pyridin-3-yl)-3H-imidazo[4,5-b]pyridine-3-carboxamide] | – | 0.04 (≈ 0.0996 µM) | > 6.70 |
| O=C(NCCc1ccccc1)n1cnc2cc(N3CCOCC3)ccc21 [Example 14a, 5-Morpholino-N-phenethyl-1H-benzo[d]imidazole-1-carboxamide] | – | 16.1 (≈ 45.9 µM) | > 6.70 |
| COc1cc(N2CCOCC2)cc2c1ncn2C(=O)NCCc1ccccc1 [Example 39, 4-Methoxy-6-morpholino-N-phenethyl-1H-benzo[d]imidazole-1-carboxamide] | – | 16.3 (≈ 42.8 µM) | > 6.70 |
| COc1ccc2ncn(C(=O)NCCc3ccccc3)c2c1 [Example 25b, 6-methoxy-N-phenethyl-1H-benzo[d]imidazole-1-carboxamide] | – | 15 (≈ 50.8 µM) | > 6.70 |
| Cn1c(=O)n(C(=O)NCCc2ccccc2)c2cc(-c3cncnc3)ccc21 [Example 32a, 3-Methyl-2-oxo-N-phenethyl-6-(pyrimidin-5-yl)-2,3-dihydro-1H-benzo[d]imidazole-1-carboxamide] | – | 0.9 (≈ 2.41 µM) | < 6.00 |
| CC(C)CCNC(=O)n1c(OCCN(C)C)nc2ccccc21 [Example 120, 2-(2-(Dimethylamino)ethoxy)-N-iso-pentyl-1H-benzo[d]imidazole-1-carboxamide] | – | 21 (≈ 66 µM) | > 6.70 |
| CC(C)CCNC(=O)n1cnc2c(N3[C@@H]4CC[C@H]3COC4)cccc21 [Example 220, 4-((1R,5S)-3-Oxa-8-azabicyclo[3.2.1]octan-8-yl)-N-isopentyl-1H-benzo[d]imidazole-1-carboxamide] | 6.00 to 6.70 | 4 (≈ 11.7 µM) | – |

Other lines, results leading:

| pIC50 ([1]; pH 4.5) | solubility [2] [µg/mL] | pIC50 [1, 3] | SMILES |
| --- | --- | --- | --- |
| > 6.70 | 21 (≈ 53.6 µM) | – | CN1CCCN(c2cccc3c2ncn3C(=O)NCCCc2ccccc2)CC1 [Example 269, 4-(4-Methyl-1,4-diazepan-1-yl)-N-(3-phenylpropyl)-1H-benzo[a]imidazole-1-carboxamide] |
| > 6.70 | 18 (≈ 41.3 µM) | – | COc1nc2cc(N3CCN(C(C)=O)CC3)ccc2n1C(=O)NCCCc1ccccc1 [Example 236a, 5-(4-Acetylpiperazin-1-yl)-2-methoxy-N-(3-phenylpropyl)-1H-benzo[d]imidazole-1-carboxamide] |
| > 6.70 | 8 (≈ 20.1 µM) | – | CC(=O)N1CCN(c2cccc3c2ncn3C(=O)NCCCC(F)(F)F)CC1 [Example 225, 4-(4-Acetylpiperazin-1-yl)-N-(4,4,4-trifluorobutyl)-1H-benzo[d]imidazole-1-carboxamide] |
| > 6.70 | 12 (≈ 30.6 µM) | – | CCN1CCN(c2cccc3c2ncn3C(=O)NCCCc2ccccc2)CC1 [Example 249, 4-(4-Ethylpiperazin-1-yl)-N-(3-phenylpropyl)-1H-benzo[d]imidazole-1-carboxamide] |
| 6.00 to 6.70 | 26 (≈ 63 µM) | – | COc1nc2ccc(N3CCOCC3)cc2n1C(=O)NCCC1CC1C(F)(F)F (stereo not shown) [Example 230a, 2-Methoxy-6-morpholino-N-(2-(2-(trifluoromethyl)cyclopropyl)ethyl)-1H-benzo[d]imidazole-1-carboxamide] |
| > 6.70 | 21 (≈ 51.8 µM) | – | O=C(NCCc1ccccc1)n1cnc2c(N3CCN(C4COC4)CC3)cccc21 [Example 326, 4-(4-(Oxetan-3-yl)piperazin-1-yl)-N-phenethyl-1H-benzo[d]imidazole-1-carboxamide] |
| > 6.70 | 16 (≈ 47.1 µM) | – | CC(C)C#CCNC(=O)n1cnc2c(N3CCN(C)CC3)cccc21 [Example 280, N-(4-Methylpent-2-ynyl)-4-(4-methylpiperazin-1-yl)-1H-benzo[d]imidazole-1-carboxamide] |
| > 6.70 | 27 (≈ 69.3 µM) | – | O=C(NCCCc1ccccc1)n1cnc2c(N3CC4CNCC4C3)cccc21 (stereo not shown) [Example 265, 4-(Hexahydropyrrolo[3,4-c]pyrrole-2(1H)-yl)-N-(3-phenylpropyl)-1H-benzo[d]imidazole-1-carboxamide] |
| – | 24 (≈ 58.9 µM) | 6.00 to 6.70 | CN1CCN(CCOc2nc3ccccc3n2C(=O)NCCc2ccccc2)CC1 [Example 343] |
| > 6.70 | 22 (≈ 56.8 µM) | – | CN(C)CC1CN(c2cccc3c2ncn3C(=O)NCC#Cc2ccccc2)C1 [Example 331, 4-(3-((Dimethylamino)methyl)azetidin-1-yl)-N-(3-phenylprop-2-yn-1-yl)-1H-benzo[d]imidazole-1-carboxamide] |
| > 6.70 | 4 (≈ 9.29 µM) | – | COc1nc2ccc(N3CCOCC3)cc2n1C(=O)NCCCc1ccc(F)cc1F [Example 224a, N-(3-(2,4-Difluorophenyl)propyl)-2-methoxy-6-morpholino-1H-benzo[d]imidazole-1-carboxamide] |
| – | 28 (≈ 64.9 µM) | > 6.70 | CN1CCN(CCOc2nc3ccccc3n2C(=O)NCCC#Cc2ccccc2)CC1 [Example 363, 2-(2-(4-Methylpiperazin-1-yl)ethoxy)-N-(4-phenylbut-3-yn-1-yl)-1H-benzo[d]imidazole-1-carboxamide] |
| – | 15 (≈ 38.3 µM) | > 6.70 | CN1CCN(c2cccc3c2ncn3C(=O)NCC#Cc2ccc(F)cc2)CC1 [Example 336, N-(3-(4-Fluorophenyl)prop-2-yn-1-yl)-4-(4-methylpiperazin-1-yl)-1H-benzo[d]imidazole-1-carboxamide] |
| > 6.70 | 27 (≈ 66.6 µM) | – | O=C(NCCOc1ccccc1)n1cnc2c(N3CCN4CCCC4C3)cccc21 (stereo not shown) [Example 316, 4-(Hexahydropyrrolo[1,2-a]pyrazin-2(1H)-yl)-N-(2-phenoxyethyl)-1H-benzo[d]imidazole-1-carboxamide] |
| – | 20 (≈ 49.6 µM) | > 6.70 | COc1ccccc1C#CCNC(=O)n1cnc2c(N3CCN(C)CC3)cccc21 [Example 341, N-(3-(2-Methoxyphenyl)prop-2-yn-1-yl)-4-(4-methylpiperazin-1-yl)-1H-benzo[d]imidazole-1-carboxamide] |
| – | 16 (≈ 39.7 µM) | > 6.70 | COc1ccc(C#CCNC(=O)n2cnc3c(N4CCN(C)CC4)cccc32)cc1 [Example 339, N-(3-(4-Methoxyphenyl)prop-2-yn-1-yl)-4-(4-methylpiperazin-1-yl)-1H-benzo[d]imidazole-1-carboxamide] |

Reference: patent US20220380319A1 (Bial - R&D Investments, S.A., priority 2019, published 2022)
